# Laboratory results: patent US12091425B2 (AMGEN INC., priority 2016, dated 2024)
# Molecular target: T1, Mcl-1/Bim interaction, recombinant human Mcl-1 (171-327) (Homo sapiens, UniProt Q07820)
# T1 construct: made in house
# Assay: Cell free Mcl-1: Bim Affinity Assay (Mcl-1 HTRF)
# Assay type: binding
# Conditions: TR-FRET, 0.1 nM Mcl-1 (171-327), 0.05 nM biotin-Bim (51-76)
# Method in brief: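 Biotin-Bim(51-76) peptide, TR-FRET readout, overnight incubation; IC50 from duplicate competition curves, 4-parameter fit.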
# T1 sequence (Q07820 171-327): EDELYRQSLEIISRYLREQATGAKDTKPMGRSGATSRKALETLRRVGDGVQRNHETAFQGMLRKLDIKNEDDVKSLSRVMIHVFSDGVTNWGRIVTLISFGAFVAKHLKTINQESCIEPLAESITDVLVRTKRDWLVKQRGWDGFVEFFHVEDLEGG
row,Compound,IC50
1,"CCN1CCCC[C@H](O)[C@@H]2CC[C@H]2CN2C[C@@]3(CCCc4cc(Cl)ccc43)COc3ccc(cc32)C(=O)NS1(=O)=O [Example 86, (1S,3′R,6′R,7′S)-6-chloro-12′-ethyl-7′-hydroxy-3,4-dihydro-2H,15′H-spiro[naphthalene-1,22′-[20]oxa[13]thia[1,12,14]triazatetracyclo[14.7.2.0^3,6.0^19,24]pentacosa[16,18,24]trien]-15′-one 13′,13′-dioxide]",4.04 nM
2,"O=C1NS(=O)(=O)[C@@H]2CC[C@H]2CCC[C@H](O)[C@@H]2CC[C@H]2CN2C[C@@]3(CCCc4cc(Cl)ccc43)COc3ccc1cc32 [Example 91, (1S,3′R,6′R,7′S,11′R,14′R)-6-chloro-7′-hydroxy-3,4-dihydro-2H,17′H-spiro[naphthalene-1,24′-[22]oxa[15]thia[1,16]diazapentacyclo[16.7.2.0^3,6.0^11,14.0^21,26]heptacosa[18,20,26]trien]-17′-one 15′,15′-dioxide]",3.06 nM
3,"O=C1NS(=O)(=O)[C@H]2CC[C@@H]2CCC[C@H](O)[C@@H]2CC[C@H]2CN2C[C@@]3(CCCc4cc(Cl)ccc43)COc3ccc1cc32 [Example 92, (1S,3′R,6′R,7′S,11′S,14′S)-6-chloro-7′-hydroxy-3,4-dihydro-2H,17′H-spiro[naphthalene-1,24′-[22]oxa[15]thia[1,16]diazapentacyclo[16.7.2.0^3,6.0^11,14.0^21,26]heptacosa[18,20,26]trien]-17′-one 15′,15′-dioxide]",0.781 nM
4,"COc1ccc(CN2CCCCS(=O)(=O)NC(=O)c3ccc4c(c3)N(C[C@@H]3CC[C@H]3C2=O)C[C@@]2(CCCc3cc(Cl)ccc32)CO4)cc1 [Example 96, (1S,3′R,6′R)-6-chloro-8′-(4-methoxybenzyl)-3,4-dihydro-2H,7′H,15′H-spiro[naphthalene-1,22′-[20]oxa[13]thia[1,8,14]triazatetracyclo[14.7.2.0^3,6.0^19,24]pentacosa[16,18,24]trien]-7′,15′-dione 13′,13′-dioxide]",31.7 nM
5,"O=C1NS(=O)(=O)CCCCNC(=O)[C@@H]2CC[C@H]2CN2C[C@@]3(CCCc4cc(Cl)ccc43)COc3ccc1cc32 [Example 98, (1S,3′R,6′R)-6-chloro-3,4-dihydro-2H,7′H,15′H-spiro[naphthalene-1,22′-[20]oxa[13]thia[1,8,14]triazatetracyclo[14.7.2.0^3,6.0^19,24]pentacosa[16,18,24]triene]-7′,15′-dione 13′,13′-dioxide]",15.5 nM
6,"CN1CCCCS(=O)(=O)NC(=O)c2ccc3c(c2)N(C[C@@H]2CC[C@H]2C1=O)C[C@@]1(CCCc2cc(Cl)ccc21)CO3 [Example 99, (1S,3′R,6′R)-6-chloro-8′-methyl-3,4-dihydro-2H,7′H,15′H-spiro[naphthalene-1,22′-[20]oxa[13]thia[1,8,14]triazatetracyclo[14.7.2.0^3,6.0^19,24]pentacosa[16,18,24]trien]-7′,15′-dione 13′,13′-dioxide]",20.7 nM
7,"O=C1NS(=O)(=O)[C@H]2C[C@@H](/C=C/[C@H](O)[C@@H]3CC[C@H]3CN3C[C@@]4(CCCc5cc(Cl)ccc54)COc4ccc1cc43)C2 [Example 100, (1S,3′R,6′R,7′S,8′E,10′S,12′R)-6-chloro-7′-hydroxy-3,4-dihydro-2H,15′H-spiro[naphthalene-1,22′-[20]oxa[13]thia[1,14]diazapentacyclo[14.7.2.1^10,12.0^3,6.0^19,24]hexacosa[8,16,18,24]tetraen]-15′-one 13′,13′-dioxide]",2.45 nM
8,"O=C1NS(=O)(=O)[C@H]2C[C@H](CC[C@H](O)[C@@H]3CC[C@H]3CN3C[C@@]4(CCCc5cc(Cl)ccc54)COc4ccc1cc43)C2 [Example 103, (1S,3′R,6′R,7′S,10′R,12′R)-6-chloro-7′-hydroxy-3,4-dihydro-2H,15′H-spiro[naphthalene-1,22′-[20]oxa[13]thia[1,14]diazapentacyclo[14.7.2.1^10,120^3,6.0^19,24]hexacosa[16,18,24]trien]-15′-one 13′,13′-dioxide]",1.43 nM
9,"C[C@@H]1[C@@H](C)C[C@H](CCN2CCOCC2)/C=C/[C@@H]2CC[C@H]2CN2C[C@@]3(CCCc4cc(Cl)ccc43)COc3ccc(cc32)C(=O)NS1(=O)=O [Example 115, (1S,3′R,6′S,7′E,9′R,11′S,12′R)-6-chloro-11′,12′-dimethyl-9′-(2-(4-morpholinyl)ethyl)-3,4-dihydro-2H,15′H-spiro[naphthalene-1,22′-[20]oxa[13]thia[1,14]diazatetracyclo[14.7.2.0^3,6.0^19,24]pentacosa[7,16,18,24]tetraen]-15′-one 13′,13′-dioxide]",2.71 nM
10,COC(=O)C1CCN(C(=O)[C@H]2CC/C=C\[C@H](O)[C@@H]3CC[C@H]3CN3C[C@@]4(CCCc5cc(Cl)ccc54)COc4ccc(cc43)C(=O)NS2(=O)=O)CC1 [Example 143],2 nM
11,"O=C1NS(=O)(=O)CC[C@H](CO)/C=C/[C@H](O)[C@@H]2CC[C@H]2CN2C[C@@]3(CCCc4cc(Cl)ccc43)COc3ccc1cc32 [Example 201, (1S,3′R,6′R,7′S,8′E,10′S)-6-chloro-7′-hydroxy-10′-(hydroxymethyl)-3,4-dihydro-2H,15′H-spiro[naphthalene-1,22′-[20]oxa[13]thia[1,14]diazatetracyclo[14.7.2.0^3,6.0^19,24]pentacosa [8,16,18,24]tetraen]-15′-one 13′,13′-dioxide]",2.69 nM
12,"CO[C@@H]1/C=C/CCS(=O)(=O)NC(=O)c2ccc3c(c2)N(C[C@@H]2CC[C@H]21)C[C@@]1(CCCc2cc(Cl)ccc21)CO3 [Example 225, (1S,3′R,6′R,7′R,8′E)-6-chloro-7′-methoxy-3,4-dihydro-2H,14′H-spiro[naphthalene-1,21′-[19]oxa[12]thia[1,13]diazatetracyclo[13.7.2.0^3,6.0^18,23]tetracosa [8,15,17,23]tetraen]-14′-one 12′,12′-dioxide]",23.1 nM
13,CO[C@@H]1CCCCS(=O)(=O)NC(=O)c2ccc3c(c2)N(C[C@@H]2CC[C@H]21)C[C@@]1(CCCc2cc(Cl)ccc21)CO3 [Example 226],25.6 nM
14,"CO[C@@H]1CCCCCCS(=O)(=O)NC(=O)c2ccc3c(c2)N(C[C@@H]2CC[C@H]21)C[C@@]1(CCCc2cc(Cl)ccc21)CO3 [Example 230, (1S,3′R,6′R,7′R)-6-chloro-7′-methoxy-3,4-dihydro-2H,16′H-spiro[naphthalene-1,23′-[21]oxa[14]thia[1,15]diazatetracyclo[15.7.2.0^3,6.0^20,25]hexacosa[17,19,25]trien]-16′-one 14′,14′-dioxide]",32.3 nM
15,"O=C1NS(=O)(=O)C/C=C/[C@H](O)[C@@H]2CC[C@H]2CN2C[C@@]3(CCCc4cc(Cl)ccc43)COc3ccc1cc32 [Example 341, (1S,3′R,6′R,7′S,8′E)-6-chloro-7′-hydroxy-3,4-dihydro-2H,13′H-spiro[naphthalene-1,20′-[18]oxa[11]thia[1,12]diazatetracyclo[12.7.2.0^3,6.0^17,22]tricosa[8,14,16,22]tetraen]-13′-one 11′,11′-dioxide]",7.07 nM
16,"O=C1NS(=O)(=O)CCC[C@H](O)[C@@H]2CC[C@H]2CN2C[C@@]3(CCCc4cc(Cl)ccc43)COc3ccc1cc32 [Example 342, (1S,3′R,6′R,7′S)-6-chloro-7′-hydroxy-3,4-dihydro-2H,13′H-spiro[naphthalene-1,20′-[18]oxa[11]thia[1,12]diazatetracyclo[12.7.2.0^3,6.0^17,22]tricosa[14,16,22]trien]-13′-one 11′,11′-dioxide]",5 nM
17,"O=C1CCCS(=O)(=O)NC(=O)c2ccc3c(c2)N(C[C@@H]2CC[C@H]2CN1)C[C@@]1(CCCc2cc(Cl)ccc21)CO3 [Example 370, (1S,3′R,6′R)-6-chloro-3,4-dihydro-2H,9′H,15′H-spiro[naphthalene-1,22′-[20]oxa[13]thia[1,8,14]triazatetracyclo[14.7.2.0^3,6.0^19,24]pentacosa[16,18,24]triene]-9′,15′-dione 13′,13′-dioxide]",4.5 nM
18,"CNC(=O)CO[C@H]1/C=C/CC[C@@H](C)S(=O)(=O)NC(=O)c2ccc3c(c2)N(C[C@@H]2CC[C@H]21)C[C@@]1(CCCc2cc(Cl)ccc21)CO3 [Example 404, 2-(((1S,3′R,6′R,7′S,8′E,12′R)-6-chloro-12′-methyl-13′,13′-dioxido-15′-oxo-3,4-dihydro-2H-spiro[naphthalene-1,22′-[20]oxa[13]thia[1,14]diazatetracyclo[14.7.2.0^3,6.0^19,24]pentacosa [8,16,18,24]tetraen]-7′-yl)oxy)-N-methylacetamide]",0.442 nM
19,"COCCO[C@H]1/C=C/CC[C@@H](C)S(=O)(=O)NC(=O)c2ccc3c(c2)N(C[C@@H]2CC[C@H]21)C[C@@]1(CCCc2cc(Cl)ccc21)CO3 [Example 405, (1S,3′R,6′R,7′S,8′E,12′R)-6-chloro-7′-(2-methoxyethoxy)-12′-methyl-3,4-dihydro-2H,15′H-spiro[naphthalene-1,22′-[20]oxa[13]thia[1,14]diazatetracyclo[14.7.2.0^3,6.0^19,24]pentacosa [8,16,18,24]tetraen]-15′-one 13′,13′-dioxide]",0.543 nM
20,"C[C@@H]1CC/C=C/[C@H](OCCS(C)(=O)=O)[C@@H]2CC[C@H]2CN2C[C@@]3(CCCc4cc(Cl)ccc43)COc3ccc(cc32)C(=O)NS1(=O)=O [Example 406, (1S,3′R,6′R,7′S,8′E,12′R)-6-chloro-12′-methyl-7′-(2-(methylsulfonyl)ethoxy)-3,4-dihydro-2H,15′H-spiro[naphthalene-1,22′-[20]oxa[13]thia[1,14]diazatetracyclo[14.7.2.0^3,6.0^19,24]pentacosa [8,16,18,24]tetraen]-15′-one 13′,13′-dioxide]",0.602 nM
21,"C[C@@H]1CC/C=C/[C@H](OCC(=O)N(C)C)[C@@H]2CC[C@H]2CN2C[C@@]3(CCCc4cc(Cl)ccc43)COc3ccc(cc32)C(=O)NS1(=O)=O [Example 420, 2-(((1S,3′R,6′R,7′S,8′E,12′R)-6-chloro-12′-methyl-13′,13′-dioxido-15′-oxo-3,4-dihydro-2H-spiro[naphthalene-1,22′-[20]oxa[13]thia[1,14]diazatetracyclo[14.7.2.0^3,6.0^19,24]pentacosa [8,16,18,24]tetraen]-7′-yl)oxy)-N,N-dimethylacetamide]",0.349 nM
